In patent publication US20140135319A1, “6-SUBSTITUTED IMIDAZOPYRAZINES FOR USE AS MPS-1 AND TKK INHIBITORS IN THE TREATMENT OF HYPERPROLIFERATIVE DISORDERS” (BAYER INTELLECTUAL PROPERTY GMBH, priority 2010, published 2014) one finds IC50 data, which are given here for 23 compounds.

Structures are written as SMILES.

What is called IC50 is the midpoint of a concentration-inhibition curve.

In this assay the target is T1, human kinase Mps-1 (Homo sapiens, UniProt P33981).
T1 construct: N-terminally GST-tagged human full length recombinant Mps-1 kinase; GST (N); purchased Invitrogen, Karslruhe, Germany PV4071
T1 sequence (P33981 1-857): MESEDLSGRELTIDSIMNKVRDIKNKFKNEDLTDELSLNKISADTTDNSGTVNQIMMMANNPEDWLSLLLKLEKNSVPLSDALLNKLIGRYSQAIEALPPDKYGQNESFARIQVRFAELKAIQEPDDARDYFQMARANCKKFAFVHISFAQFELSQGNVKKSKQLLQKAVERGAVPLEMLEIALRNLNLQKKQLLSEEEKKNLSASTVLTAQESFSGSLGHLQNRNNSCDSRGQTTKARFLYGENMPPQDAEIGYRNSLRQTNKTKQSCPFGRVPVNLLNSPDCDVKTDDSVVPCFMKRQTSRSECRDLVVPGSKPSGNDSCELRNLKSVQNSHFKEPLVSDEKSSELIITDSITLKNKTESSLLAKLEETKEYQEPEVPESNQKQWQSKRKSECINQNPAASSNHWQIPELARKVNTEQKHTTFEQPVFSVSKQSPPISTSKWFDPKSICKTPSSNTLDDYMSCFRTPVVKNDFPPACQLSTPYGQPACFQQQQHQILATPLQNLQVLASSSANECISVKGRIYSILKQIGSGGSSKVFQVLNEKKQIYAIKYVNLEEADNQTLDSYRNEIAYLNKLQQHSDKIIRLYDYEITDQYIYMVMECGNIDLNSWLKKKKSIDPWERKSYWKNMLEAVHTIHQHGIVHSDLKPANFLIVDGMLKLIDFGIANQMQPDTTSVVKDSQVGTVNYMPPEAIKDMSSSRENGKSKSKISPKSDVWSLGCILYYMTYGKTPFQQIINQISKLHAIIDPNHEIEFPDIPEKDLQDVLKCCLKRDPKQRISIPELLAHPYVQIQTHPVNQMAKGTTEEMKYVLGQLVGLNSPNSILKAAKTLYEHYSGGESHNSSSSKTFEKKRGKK
Briefly: Mps-1 kinase assay (TR-FRET). The following applies: GST-tagged human full length recombinant Mps-1; 10 μM ATP; 1 μM peptide substrate; 60 min at 22° C. It is filed as biochemical. How it is done:
The human kinase Mps-1 phosphorylates a biotinylated substrate peptide. Detection of the phosphorylated product is achieved by time-resolved fluorescence resonance energy transfer (TR-FRET) from Europium-labelled anti-phospho-Serine/Threonine antibody as donor to streptavidin labelled with cross-linked allophycocyanin (SA-XLent) as acceptor. Compounds are tested for their inhibition of the kinase activity.
N-terminally GST-tagged human full length recombinant Mps-1 kinase (purchased from Invitrogen, Karslruhe, Germany, cat. no PV4071) was used. As substrate for the kinase reaction a biotinylated peptide of the amino-acid sequence […] (C-terminus in amide form, purchased from Biosynthan GmbH, Berlin) was used.
The concentration of Mps-1 in the assay was adjusted to the activity of the enzyme lot and was chosen appropriate to have the assay in the linear range, typical enzyme concentrations were in the range of about 1 nM (final conc. in the 5 μl assay volume).
The resulting mixture was incubated 1 h at 22° C. to allow the binding of the phosphorylated peptide to the anti-phospho(Ser/Thr)-Europium-antibody. Subsequently the amount of phosphorylated substrate was evaluated by measurement of the resonance energy transfer from the Europium-labelled anti-phospho(Ser/Thr) antibody to the Streptavidin-XLent. Therefore, the fluorescence emissions at 620 nm and 665 nm after excitation at 350 nm was measured in a Viewlux TR-FRET reader (PerkinElmer LAS, Rodgau-Jügesheim, Germany). The “blank-corrected normalized ratio” (a Viewlux specific readout, similar to the traditional ratio of the emissions at 665 nm and at 622 nm, in which blank and Eu-donor crosstalk are subtracted from the 665 nm signal before the ratio is calculated) was taken as the measure for the amount of phosphorylated substrate.
A general note: In TR-FRET formats the signal depends on donor and acceptor labels being close together.
Consider `CC(C)CNc1nc(-c2cncc(C(=O)NC(C)(C)C)c2)cn2c(-c3ccc(C(=O)NC4CC4)cc3)cnc12` [Example 1-24, N-tert-butyl-5-{3-[4-(cyclopropylcarbamoyl)phenyl]-8-[(2-methyl-propyl)amino]imidazo [1,2-a]pyrazin-6-yl} pyridine-3-carboxamide], for which the IC50 worked out at 19.4 nM. In the case of `CC(=O)Nc1ccc(-c2cn3c(-c4ccc(C(=O)NC5CC5)cc4)cnc3c(NCC(C)C)n2)cn1` [Example 1-25, 4-{6-[6-(acetylamino)pyridin-3-yl]-8-[(2-methyl-propyl)amino]imidazo [1,2-a]pyrazin-3-yl}-N-cyclopropylbenzamide] it was 8.9 nM; in that of `CC(C)CNc1nc(C2=CCNCC2)cn2c(-c3ccc(C(=O)NC4CC4)cc3)cnc12` [Example 1-26, N-cyclopropyl-4-{8-[(2-methylpropyl)amino]-6-(1,2,3,6-tetrahydro-pyridin-4-yl)imidazo [1,2-a]pyrazin-3-yl} benzamide], 2.9 nM. As for `CC(C)CNc1nc(C2=CCN(C)CC2)cn2c(-c3ccc(C(=O)NC4CC4)cc3)cnc12` [Example 1-27, N-cyclopropyl-4-{8-[(2-methylpropyl)amino]-6-(1-methyl-1,2,3,6-tetra-hydropyridin-4-yl)imidazo[1,2-a]pyrazin-3-yl}benzamide], the figure is 7.5 nM; as for `CC(C)CNc1nc(C2=CCSCC2)cn2c(-c3ccc(C(=O)NC4CC4)cc3)cnc12` [Example 1-28, N-cyclopropyl-4-{6-(3,6-dihydro-2H-thiopyran-4-yl)-8-[(2-methylpropyl)amino]imidazo[1,2-a]pyrazin-3-yl}benzamide], 2 nM; as for `CC(C)CNc1nc(C2=CCOCC2)cn2c(-c3ccc(C(=O)NC4CC4)cc3)cnc12` [Example 1-29, N-cyclopropyl-4-{6-(3,6-dihydro-2H-pyran-4-yl)-8-[(2-methylpropyl)amino]imidazo[1,2-a]pyrazin-3-yl}benzamide], 1.4 nM.

In the case of `CC(C)CNc1nc(-c2ccn[nH]2)cn2c(-c3ccc(C(=O)NC4CC4)cc3)cnc12` [Example 1-30, N-cyclopropyl-4-{8-[(2-methylpropyl)amino]-6-(1H-pyrazol-5-yl)imidazo[1,2-a]pyrazin-3-yl}benzamide], the IC50 came out at 1.7 nM. As for `CC(C)CNc1nc(-c2ccc(CN(C)C)cc2)cn2c(-c3ccc(C(=O)NC4CC4)cc3)cnc12` [Example 1-31, N-cyclopropyl-4-(6-{4-[(dimethylamino)methyl]phenyl}-8-[(2-methyl-propyl)amino]imidazo [1,2-a]pyrazin-3-yl) benzamide], the figure is 3.3 nM; as for `CC(C)CNc1nc(-c2ccncc2)cn2c(-c3ccc(C(=O)NC4CC4)c(Cl)c3)cnc12` [Example 1-32, 2-chloro-N-cyclopropyl-4-{8-[(2-methylpropyl)amino]-6-(pyridin-4-yl)imidazo[1,2-a]pyrazin-3-yl}benzamide], 6.2 nM; as for `CC(C)CNc1nc(-c2ccoc2)cn2c(-c3ccc(C(=O)NC4CC4)c(Cl)c3)cnc12` [Example 1-33, 2-chloro-N-cyclopropyl-4-{6-(furan-3-yl)-8-[(2-methylpropyl)amino]imidazo[1,2-a]pyrazin-3-yl}benzamide], 12.4 nM. As for `CC(C)CNc1nc(-c2ccn[nH]2)cn2c(-c3ccc(C(=O)NC4CC4)c(Cl)c3)cnc12` [Example 1-34, 2-chloro-N-cyclopropyl-4-{8-[(2-methylpropyl)amino]-6-(1H-pyrazol-5-yl)imidazo[1,2-a]pyrazin-3-yl}benzamide], the figure is 35.7 nM; as for `CC(C)CNc1nc(C2=CCOCC2)cn2c(-c3ccc(C(=O)NC4CC4)c(Cl)c3)cnc12` [Example 1-35, 2-chloro-N-cyclopropyl-4-{6-(3,6-dihydro-2H-pyran-4-yl)-8-[(2-methyl-propyl)amino]imidazo [1,2-a]pyrazin-3-yl} benzamide], 11.4 nM; as for `O=C(NC1CC1)c1ccc(-c2cnc3c(NCCC(F)(F)F)nc(-c4ccncc4)cn23)cc1Cl` [Example 1-36, 2-chloro-N-cyclopropyl-4-{6-(pyridin-4-yl)-8-[(3,3,3-trifluoropropyl)amino]imidazo[1,2-a]pyrazin-3-yl}benzamide], 5.9 nM. `O=C(NC1CC1)c1ccc(-c2cnc3c(NCCC(F)(F)F)nc(-c4ccoc4)cn23)cc1Cl` [Example 1-37, 2-chloro-N-cyclopropyl-4-{6-(furan-3-yl)-8-[(3,3,3-trifluoropropyl)amino]imidazo[1,2-a]pyrazin-3-yl}benzamide]: the IC50 was 8.1 nM. In the case of `O=C(NC1CC1)c1ccc(-c2cnc3c(NCCC(F)(F)F)nc(-c4ccn[nH]4)cn23)cc1Cl` [Example 1-38, 2-chloro-N-cyclopropyl-4-{6-(1H-pyrazol-5-yl)-8-[(3,3,3-trifluoropropyl)amino]imidazo[1,2-a]pyrazin-3-yl}benzamide] it was 14.1 nM; in that of `O=C(NC1CC1)c1ccc(-c2cnc3c(NCCC(F)(F)F)nc(C4=CCOCC4)cn23)cc1Cl` [Example 1-39, 2-chloro-N-cyclopropyl-4-{6-(3,6-dihydro-2H-pyran-4-yl)-8-[(3,3,3-trifluoropropyl)amino]imidazo[1,2-a]pyrazin-3-yl}benzamide], 12.2 nM; in that of `CC(C)(O)CNc1nc(-c2ccncc2)cn2c(-c3ccc(C(=O)NC4CC4)c(Cl)c3)cnc12` [Example 1-40, 2-chloro-N-cyclopropyl-4-{8-[(2-hydroxy-2-methylpropyl)amino]-6-(pyridin-4-yl)imidazo [1,2-a]pyrazin-3-yl} benzamide], 57.7 nM.

On to `CC(C)(O)CNc1nc(-c2ccoc2)cn2c(-c3ccc(C(=O)NC4CC4)c(Cl)c3)cnc12` [Example 1-41, 2-chloro-N-cyclopropyl-4-{6-(furan-3-yl)-8-[(2-hydroxy-2-methylpropyl)amino]imidazo[1,2-a]pyrazin-3-yl}benzamide], for which the concentration for half-maximal inhibition (IC50) was determined as 55.3 nM. As for `O=C(NC1CC1)c1ccc(-c2cnc3c(NCC4CCCO4)nc(-c4ccncc4)cn23)cc1Cl` (centres unmarked) [Example 1-42, 2-chloro-N-cyclopropyl-4-{6-(pyridin-4-yl)-8-[(tetrahydrofuran-2-ylmethyl)amino]imidazo [1,2-a]pyrazin-3-yl} benzamide], the figure is 40.9 nM; as for `O=C(NC1CC1)c1ccc(-c2cnc3c(NCC4CCCO4)nc(-c4ccoc4)cn23)cc1Cl` (centres unmarked) [Example 1-43, 2-chloro-N-cyclopropyl-4-{6-(furan-3-yl)-8-[(tetrahydrofuran-2-ylmethyl)amino]imidazo [1,2-a]pyrazin-3-yl} benzamide], 42.8 nM. For `O=C(NC1CC1)c1ccc(-c2cnc3c(NCC4CCCO4)nc(-c4ccn[nH]4)cn23)cc1Cl` (centres unmarked) [Example 1-44, 2-chloro-N-cyclopropyl-4-{6-(1H-pyrazol-5-yl)-8-[(tetrahydrofuran-2-ylmethyl)amino]imidazo [1,2-a]pyrazin-3-yl} benzamide], the half-inhibitory concentration (IC50) amounted to 127 nM.

Consider `O=C(NC1CC1)c1ccc(-c2cnc3c(NCC4CCCO4)nc(C4=CCOCC4)cn23)cc1Cl` (centres unmarked) [Example 1-45, 2-chloro-N-cyclopropyl-4-{6-(3,6-dihydro-2H-pyran-4-yl)-8-[(tetrahydro-furan-2-ylmethyl)amino]imidazo[1,2-a]pyrazin-3-yl}benzamide], for which the IC50 came out at 105 nM. In the case of `Cn1nccc1CNc1nc(-c2ccncc2)cn2c(-c3ccc(C(=O)NC4CC4)c(Cl)c3)cnc12` [Example 1-46, 2-chloro-N-cyclopropyl-4-[8-{[(1-methyl-1H-pyrazol-5-yl)methyl]amino}-6-(pyridin-4-yl)imidazo[1,2-a]pyrazin-3-yl]benzamide], the half-maximal inhibitory concentration (IC50) stood at 32.6 nM.
